Source: PubChem BioAssay (NCI)
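Following 48 hours of exposure in 96-well plates, responses at five concentrations were used to interpolate endpoints linearly. GI50 is the concentration that inhibits growth by half. TGI: concentration producing complete growth inhibition.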

Key:
Test in all cases: NCI anticancer screen, dose series, 48 h; in the data active means GI50 below about 0.43 µM; inactive means the rest
SNB-75 CNS = tested on: SNB-75 CNS
K-562 leukemia = tested on: K-562 leukemia
T-47D breast = tested on: T-47D breast
NCI/ADR-RES ovarian = tested on: NCI/ADR-RES ovarian
SK-OV-3 ovarian = tested on: SK-OV-3 ovarian
MDA-MB-231 breast = tested on: MDA-MB-231 breast
A498 renal = tested on: A498 renal
HCC-2998 colon = tested on: HCC-2998 colon
NCI-H522 lung = tested on: NCI-H522 lung
DU-145 prostate = tested on: DU-145 prostate
UO-31 renal = tested on: UO-31 renal
RPMI-8226 leukemia = tested on: RPMI-8226 leukemia
U251 CNS = tested on: U251 CNS
MALME-3M melanoma = tested on: MALME-3M melanoma
BT-549 breast = tested on: BT-549 breast
MDA-MB-435 = tested on: MDA-MB-435
OVCAR-8 ovarian = tested on: OVCAR-8 ovarian
SR leukemia = tested on: SR leukemia
COLO 205 colon = tested on: COLO 205 colon
ACHN renal = tested on: ACHN renal
SK-MEL-2 melanoma = tested on: SK-MEL-2 melanoma
PC-3 prostate = tested on: PC-3 prostate
HOP-62 NSCLC = tested on: HOP-62 NSCLC
OVCAR-5 ovarian = tested on: OVCAR-5 ovarian
SF-268 CNS = tested on: SF-268 CNS
SF-539 CNS = tested on: SF-539 CNS
SK-MEL-5 melanoma = tested on: SK-MEL-5 melanoma
SNB-19 CNS = tested on: SNB-19 CNS
HCT-116 colon = tested on: HCT-116 colon
HOP-92 NSCLC = tested on: HOP-92 NSCLC
UACC-257 melanoma = tested on: UACC-257 melanoma
M14 melanoma = tested on: M14 melanoma
KM12 colon = tested on: KM12 colon
IGROV1 ovarian = tested on: IGROV1 ovarian
SK-MEL-28 melanoma = tested on: SK-MEL-28 melanoma
HL-60(TB) leukemia = tested on: HL-60(TB) leukemia
A549 NSCLC = tested on: A549 NSCLC
CCRF-CEM leukemia = tested on: CCRF-CEM leukemia
MCF7 breast = tested on: MCF7 breast
RXF 393 renal = tested on: RXF 393 renal
SF-295 CNS = tested on: SF-295 CNS
SW-620 colon = tested on: SW-620 colon
NCI-H23 lung = tested on: NCI-H23 lung
NCI-H460 lung = tested on: NCI-H460 lung
CAKI-1 renal = tested on: CAKI-1 renal
HCT-15 colon = tested on: HCT-15 colon
OVCAR-4 ovarian = tested on: OVCAR-4 ovarian
MOLT-4 leukemia = tested on: MOLT-4 leukemia
TK-10 renal = tested on: TK-10 renal
NCI-H226 lung = tested on: NCI-H226 lung
HS 578T breast = tested on: HS 578T breast
UACC-62 melanoma = tested on: UACC-62 melanoma
HT29 colon = tested on: HT29 colon
SN12C renal = tested on: SN12C renal
EKVX NSCLC = tested on: EKVX NSCLC
LOX IMVI melanoma = tested on: LOX IMVI melanoma
786-0 renal = tested on: 786-0 renal

NC(N)=Nc1ccc(Nc2cccc(Oc3ccc(Cl)c(C(F)(F)F)c3)c2)cn1
inactive: GI50 (SNB-75 CNS) 1600 nM | GI50 (K-562 leukemia) 2110 nM | GI50 (T-47D breast) 1620 nM | GI50 (NCI/ADR-RES ovarian) 15.6 µM | GI50 (SK-OV-3 ovarian) 3.5 µM
13.2 µM: TGI (SK-OV-3 ovarian)
3.33 µM: TGI (SNB-75 CNS)
4.55 µM: TGI (T-47D breast)
> 100 µM: TGI (K-562 leukemia) | TGI (NCI/ADR-RES ovarian)

Cn1ccnc1C(=O)/C=C/c1ccc(CNC(=O)c2ccc(F)cc2)cc1
11.6 µM: TGI (SK-MEL-28 melanoma)
> 25 µM: TGI (MDA-MB-231 breast) | TGI (SNB-75 CNS) | TGI (K-562 leukemia) | TGI (OVCAR-8 ovarian) | TGI (SR leukemia) | TGI (A549 NSCLC) | TGI (CCRF-CEM leukemia) | TGI (MCF7 breast) | TGI (NCI/ADR-RES ovarian) | TGI (SF-295 CNS) | TGI (CAKI-1 renal) | TGI (HCT-15 colon) | TGI (OVCAR-4 ovarian) | TGI (NCI-H226 lung) | TGI (HS 578T breast) | TGI (SK-OV-3 ovarian) | TGI (SN12C renal) | TGI (EKVX NSCLC)
10.4 µM: TGI (MDA-MB-435) | TGI (HL-60(TB) leukemia)
7.05 µM: TGI (COLO 205 colon)
9.47 µM: TGI (UACC-62 melanoma)
9.42 µM: TGI (SF-268 CNS)
6.77 µM: TGI (BT-549 breast)
6.7 µM: TGI (U251 CNS)
6.28 µM: TGI (SF-539 CNS)
9.3 µM: TGI (NCI-H23 lung)
22.9 µM: TGI (T-47D breast)
19.2 µM: TGI (UACC-257 melanoma)
5.44 µM: TGI (KM12 colon)
7.27 µM: TGI (RXF 393 renal)
6.79 µM: TGI (A498 renal)
8.47 µM: TGI (HCT-116 colon)
7.74 µM: TGI (NCI-H522 lung)
8.72 µM: TGI (ACHN renal) | TGI (SW-620 colon)
6.19 µM: TGI (UO-31 renal)
15.8 µM: TGI (MOLT-4 leukemia)
10.8 µM: TGI (PC-3 prostate)
4.4 µM: TGI (LOX IMVI melanoma)
7.36 µM: TGI (HT29 colon)
24.7 µM: TGI (HOP-92 NSCLC)
12.1 µM: TGI (IGROV1 ovarian) | TGI (786-0 renal)
12.2 µM: TGI (MALME-3M melanoma) | TGI (M14 melanoma)
inactive: GI50 (MDA-MB-231 breast) 5.9 µM | GI50 (A498 renal) 3.35 µM | GI50 (HCC-2998 colon) 3.8 µM | GI50 (NCI-H522 lung) 4.04 µM | GI50 (DU-145 prostate) 1500 nM | GI50 (UO-31 renal) 2630 nM | GI50 (RPMI-8226 leukemia) 1010 nM | GI50 (U251 CNS) 2350 nM | GI50 (MALME-3M melanoma) 4.48 µM | GI50 (BT-549 breast) 2610 nM | GI50 (SNB-75 CNS) 2500 nM | GI50 (MDA-MB-435) 4.08 µM | GI50 (K-562 leukemia) 1020 nM | GI50 (OVCAR-8 ovarian) 6.62 µM | GI50 (SR leukemia) 792 nM | GI50 (COLO 205 colon) 2780 nM | GI50 (ACHN renal) 4.17 µM | GI50 (SK-MEL-2 melanoma) 4.95 µM | GI50 (PC-3 prostate) 3.87 µM | GI50 (HOP-62 NSCLC) 3.69 µM | GI50 (OVCAR-5 ovarian) 3.54 µM | GI50 (SF-268 CNS) 2980 nM | GI50 (SF-539 CNS) 2590 nM | GI50 (SK-MEL-5 melanoma) 7.08 µM | GI50 (SNB-19 CNS) 3.39 µM | GI50 (HCT-116 colon) 3.46 µM | GI50 (HOP-92 NSCLC) 5.32 µM | GI50 (UACC-257 melanoma) 5.52 µM | GI50 (T-47D breast) 2540 nM | GI50 (M14 melanoma) 4.7 µM | GI50 (KM12 colon) 2130 nM | GI50 (IGROV1 ovarian) 3.03 µM | GI50 (SK-MEL-28 melanoma) 4.82 µM | GI50 (HL-60(TB) leukemia) 2990 nM | GI50 (A549 NSCLC) 5.74 µM | GI50 (CCRF-CEM leukemia) 2550 nM | GI50 (MCF7 breast) 1670 nM | GI50 (NCI/ADR-RES ovarian) 6.06 µM | GI50 (RXF 393 renal) 3.11 µM | GI50 (SF-295 CNS) 9.12 µM | GI50 (SW-620 colon) 2770 nM | GI50 (NCI-H23 lung) 3.58 µM | GI50 (NCI-H460 lung) 3.4 µM | GI50 (CAKI-1 renal) 2360 nM | GI50 (HCT-15 colon) 1900 nM | GI50 (OVCAR-4 ovarian) 5.49 µM | GI50 (MOLT-4 leukemia) 5.03 µM | GI50 (TK-10 renal) 5.92 µM | GI50 (NCI-H226 lung) 6.9 µM | GI50 (HS 578T breast) 8.13 µM | GI50 (UACC-62 melanoma) 4.26 µM | GI50 (HT29 colon) 2980 nM | GI50 (SK-OV-3 ovarian) 7.54 µM | GI50 (SN12C renal) 6.67 µM | GI50 (EKVX NSCLC) 10.4 µM | GI50 (LOX IMVI melanoma) 1190 nM | GI50 (786-0 renal) 4.12 µM
21 µM: TGI (SK-MEL-5 melanoma)
7.54 µM: TGI (HCC-2998 colon)
17.4 µM: TGI (TK-10 renal)
5.98 µM: TGI (RPMI-8226 leukemia)
14.8 µM: TGI (SK-MEL-2 melanoma)
4.89 µM: TGI (DU-145 prostate)
9.04 µM: TGI (OVCAR-5 ovarian)
12.5 µM: TGI (HOP-62 NSCLC)
10.5 µM: TGI (SNB-19 CNS) | TGI (NCI-H460 lung)
